In PubChem BioAssay AID258 (DTP/NCI, 2004):
“And” between values parts separate entries of the source, which are not always exact repeats. Identical values can stand only once. Inconclusive results and toxic doses are left out.

System: CD2F1 mice, L1210 leukemia sc, survival T/C
Test: NCI In Vivo Anticancer Drug Screen. Data for tumor model L1210 Leukemia (subcutaneous) in CD2F1 (CDF1) mice
Conditions: endpoint: median survival time, higher = longer survival
How it was run: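 Mice with transplanted tumor dosed; survival/tumor size read; T/C vs vehicle controls.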

[1] = dose: 23.0 mg/kg/injection, schedule: Q01DX Z (sc), vehicle: water

CCOC(=O)C(CC(C)C)NC(=O)C(Cc1ccc(N(CCCl)CCCl)cc1)NC(C)=O (stereo not given)
T/C (dose: 1.0 mg/kg/injection, schedule: Q01DX009 (sc), vehicle: Klucel (hydroxypropylcellulose) (HPC)): 102 % of control and 103 % of control | T/C (dose: 2.0 mg/kg/injection, schedule: Q01DX009 (sc), vehicle: Klucel (hydroxypropylcellulose) (HPC)): 103 % of control and 98 % of control | T/C (dose: 4.0 mg/kg/injection, schedule: Q01DX009 (sc), vehicle: Klucel (hydroxypropylcellulose) (HPC)): 104 % of control and 105 % of control | T/C (dose: 8.0 mg/kg/injection, schedule: Q01DX009 (sc), vehicle: Klucel (hydroxypropylcellulose) (HPC)): 107 % of control and 98 % of control | T/C (dose: 16.0 mg/kg/injection, schedule: Q01DX009 (sc), vehicle: Klucel (hydroxypropylcellulose) (HPC)): 103 % of control and 109 % of control | T/C (dose: 28.5 mg/kg/injection, schedule: Q01DX009 (sc), vehicle: Klucel (hydroxypropylcellulose) (HPC)): 110 % of control | T/C (dose: 32.0 mg/kg/injection, schedule: Q01DX009 (sc), vehicle: Klucel (hydroxypropylcellulose) (HPC)): 100 % of control and 112 % of control | T/C (dose: 42.7 mg/kg/injection, schedule: Q01DX009 (sc), vehicle: Klucel (hydroxypropylcellulose) (HPC)): 121 % of control | T/C (dose: 64.0 mg/kg/injection, schedule: Q01DX009 (sc), vehicle: Klucel (hydroxypropylcellulose) (HPC)): 118 % of control and 124 % of control | T/C (dose: 113.8 mg/kg/injection, schedule: Q01DX009 (sc), vehicle: Klucel (hydroxypropylcellulose) (HPC)): 113 % of control | T/C (dose: 128.0 mg/kg/injection, schedule: Q01DX009 (sc), vehicle: Klucel (hydroxypropylcellulose) (HPC)): 113 % of control and 122 % of control | T/C (dose: 170.7 mg/kg/injection, schedule: Q01DX009 (sc), vehicle: Klucel (hydroxypropylcellulose) (HPC)): 120 % of control | T/C (dose: 384.0 mg/kg/injection, schedule: Q01DX009 (sc), vehicle: Klucel (hydroxypropylcellulose) (HPC)): 158 % of control

CC(=O)[C@H]1CC[C@H]2[C@@H]3C[C@H](C)C4=CC(=O)CC[C@]4(C)[C@H]3C(=O)C[C@]12C
T/C (dose: 20.0 mg/kg/injection, schedule: Q01DX009 (ip), vehicle: saline with Tween-80): 94 % of control | T/C (dose: 20.0 mg/kg/injection, schedule: Q01DX009 (sc), vehicle: saline with Tween-80): 97 % of control | T/C (dose: 40.0 mg/kg/injection, schedule: Q01DX009 (ip), vehicle: saline with Tween-80): 93 % of control | T/C (dose: 40.0 mg/kg/injection, schedule: Q01DX009 (sc), vehicle: saline with Tween-80): 98 % of control | T/C (dose: 80.0 mg/kg/injection, schedule: Q01DX009 (ip), vehicle: saline with Tween-80): 93 % of control | T/C (dose: 80.0 mg/kg/injection, schedule: Q01DX009 (sc), vehicle: saline with Tween-80): 101 % of control | T/C (dose: 160.0 mg/kg/injection, schedule: Q01DX009 (ip), vehicle: saline with Tween-80): 93 % of control | T/C (dose: 160.0 mg/kg/injection, schedule: Q01DX009 (sc), vehicle: saline with Tween-80): 98 % of control | T/C (dose: 320.0 mg/kg/injection, schedule: Q01DX009 (ip), vehicle: saline with Tween-80): 96 % of control | T/C (dose: 320.0 mg/kg/injection, schedule: Q01DX009 (sc), vehicle: saline with Tween-80): 105 % of control | T/C (dose: 640.0 mg/kg/injection, schedule: Q01DX009 (sc), vehicle: saline with Tween-80): 109 % of control

COC(=O)C1(F)C(=O)NC(=O)NC1OC (stereo not given)
T/C (dose: 50.0 mg/kg/injection, schedule: Q01DX009 (ip), vehicle: Klucel (hydroxypropylcellulose) (HPC)): 110 % of control | T/C (dose: 100.0 mg/kg/injection, schedule: Q01DX009 (ip), vehicle: Klucel (hydroxypropylcellulose) (HPC)): 120 % of control | T/C (dose: 120.0 mg/kg/injection, schedule: Q01DX009 (ip), vehicle: Klucel (hydroxypropylcellulose) (HPC)): 163 % of control | T/C (dose: 200.0 mg/kg/injection, schedule: Q01DX009 (ip), vehicle: Klucel (hydroxypropylcellulose) (HPC)): 159 % of control | T/C (dose: 333.33 mg/kg/injection, schedule: Q01DX009 (ip), vehicle: Klucel (hydroxypropylcellulose) (HPC)): 120 % of control | T/C (dose: 400.0 mg/kg/injection, schedule: Q01DX009 (ip), vehicle: Klucel (hydroxypropylcellulose) (HPC)): 105 % of control | T/C (dose: 555.56 mg/kg/injection, schedule: Q01DX009 (ip), vehicle: Klucel (hydroxypropylcellulose) (HPC)): 110 % of control | T/C (dose: 800.0 mg/kg/injection, schedule: Q01DX009 (ip), vehicle: Klucel (hydroxypropylcellulose) (HPC)): 98 % of control

ONc1ncnc2nc[nH]c12
T/C (dose: 50.0 mg/kg/injection, schedule: Q01DX Z (sc), vehicle: steriod suspending solution): 112 % of control | T/C (dose: 100.0 mg/kg/injection, schedule: Q01DX Z (sc), vehicle: steriod suspending solution): 118 % of control | T/C (dose: 400.0 mg/kg/injection, schedule: Q01DX Z (sc), vehicle: steriod suspending solution): 168 % of control

Nc1nc2c(ncn2C2CC(O)C(CO)O2)c(=O)[nH]1 (stereo not given)
T/C (dose: 31.0 mg/kg/injection, schedule: Q01DX Z (sc), vehicle: water): 100 % of control

O=C(Nc1cccc(C2=NCCN2)c1)c1ccc(-c2ccc(C(=O)Nc3cccc(C4=NCCN4)c3)cc2)cc1
T/C [1]: 110 % of control | T/C (dose: 39.0 mg/kg/injection, schedule: Q01DX Z (sc), vehicle: water): 105 % of control | T/C (dose: 65.0 mg/kg/injection, schedule: Q01DX Z (sc), vehicle: water): 100 % of control | T/C (dose: 108.0 mg/kg/injection, schedule: Q01DX Z (sc), vehicle: water): 105 % of control | T/C (dose: 180.0 mg/kg/injection, schedule: Q01DX Z (sc), vehicle: water): 100 % of control

Nc1nc2c(c(=O)[nH]1)NC(CCNc1ccc(C(=O)NC(CCC(=O)O)C(=O)O)cc1)CN2 (stereo not given)
T/C (dose: 25.0 mg/kg/injection, schedule: Q03HX Z (ip), vehicle: other): 120 % of control | T/C (dose: 50.0 mg/kg/injection, schedule: Q03HX Z (ip), vehicle: other): 120 % of control | T/C (dose: 100.0 mg/kg/injection, schedule: Q01DX Z (ip), vehicle: other): 120 % of control | T/C (dose: 100.0 mg/kg/injection, schedule: Q04DX Z (ip), vehicle: other): 100 % of control | T/C (dose: 200.0 mg/kg/injection, schedule: Q04DX Z (ip), vehicle: other): 100 % of control | T/C (dose: 800.0 mg/kg/injection, schedule: Q01DX Z (ip), vehicle: other): 100 % of control

CC[n+]1c(-c2ccccc2)c2cc(N)ccc2c2ccc(N)cc21
T/C (dose: 5.0 mg/kg/injection, schedule: Q01DX Z (sc), vehicle: carboxymethylcellulose (CMC)): 100 % of control | T/C (dose: 8.4 mg/kg/injection, schedule: Q01DX Z (sc), vehicle: carboxymethylcellulose (CMC)): 94 % of control | T/C (dose: 14.0 mg/kg/injection, schedule: Q01DX Z (sc), vehicle: carboxymethylcellulose (CMC)): 100 % of control | T/C (dose: 23.0 mg/kg/injection, schedule: Q01DX Z (sc), vehicle: carboxymethylcellulose (CMC)): 100 % of control | T/C (dose: 39.0 mg/kg/injection, schedule: Q01DX Z (sc), vehicle: carboxymethylcellulose (CMC)): 105 % of control | T/C (dose: 64.0 mg/kg/injection, schedule: Q01DX Z (sc), vehicle: carboxymethylcellulose (CMC)): 111 % of control

CCOC(=O)c1c[nH]c2oc(/C=N/N3CC(CN4CCOCC4)OC3=O)cc2c1=O (stereo not given)
T/C (dose: 25.0 mg/kg/injection, schedule: Q01DX009 (ip), vehicle: acid diluted with saline): 101 % of control | T/C (dose: 50.0 mg/kg/injection, schedule: Q01DX009 (ip), vehicle: acid diluted with saline): 109 % of control | T/C (dose: 50.0 mg/kg/injection, schedule: Q01DX009 (ip), vehicle: other): 102 % of control | T/C (dose: 79.0 mg/kg/injection, schedule: Q01DX005 (ip), vehicle: other): 108 % of control and 111 % of control | T/C (dose: 100.0 mg/kg/injection, schedule: Q01DX009 (ip), vehicle: acid diluted with saline): 110 % of control | T/C (dose: 118.7 mg/kg/injection, schedule: Q01DX005 (ip), vehicle: other): 109 % of control and 119 % of control | T/C (dose: 178.0 mg/kg/injection, schedule: Q01DX005 (ip), vehicle: other): 113 % of control | T/C (dose: 200.0 mg/kg/injection, schedule: Q01DX009 (ip), vehicle: acid diluted with saline): 155 % of control | T/C (dose: 400.0 mg/kg/injection, schedule: Q01DX005 (ip), vehicle: other): 198 % of control | T/C (dose: 400.0 mg/kg/injection, schedule: Q01DX009 (ip), vehicle: acid diluted with saline): 156 % of control

CCOC(=O)NP(=O)(N1CC1)N1CC1
T/C (dose: 14.0 mg/kg/injection, schedule: Q01DX Z (sc), vehicle: water): 172 % of control | T/C [1]: 161 % of control
